In ChEMBL document CHEMBL1123536, “Studies on Ca2+ channel antagonists. 5-[(3,4-Dimethoxyphenethyl)methylamino]-2-(3,4-dimethoxyphenyl)-2- isopropylpentyl isothiocyanate, a chemoaffinity ligand derived from verapamil” (J Med Chem, 1986):

Key:
Rattus norvegicus [1] = species: Rattus norvegicus; test: Compound was evaluated for the displacement of [3H]gallopamil from specific binding sites on rat myocardial membrane particulates; conditions: Myocardium
Rattus norvegicus [2] = species: Rattus norvegicus; test: Compound was evaluated for the concentration dependent negative ionotropic effect in rat right myocardial ventricular strips; format: functional; conditions: Cardiac ventricle

Row | IC50 (Rattus norvegicus [1]) [nM] | EC50 (Rattus norvegicus [2]) [nM] | Structure (SMILES)
1 | 342 | 4560 | COc1ccc(CCN(C)CCCC(CN=C=S)(c2ccc(OC)c(OC)c2)C(C)C)cc1OC (stereo unspecified)
2 | 16 | 1950 | COc1ccc(CCN(C)CCCC(C#N)(c2cc(OC)c(OC)c(OC)c2)C(C)C)cc1OC (stereo unspecified) [GALLOPAMIL]
3 | 362 | 2510 | COc1ccc(CCN(C)CCCC(C#N)(c2ccc(OC)c(OC)c2)C(C)C)cc1OC (stereo unspecified) [VERAPAMIL]
